Twelve molecules from ChEMBL document CHEMBL3580639, “Bioactive Limonoid Constituents of Munronia henryi” (J Nat Prod, 2015) can be followed below.

One assay has as its system SW480. Kind of assay: Cytotoxicity against human SW480 cells incubated for 48 hrs by MTT assay. In kind it is functional, cell-based. Conditions: SW480, 48 h.
The test system of another assay is MCF7. Kind of assay: Cytotoxicity against human MCF7 cells incubated for 48 hrs by MTT assay. The assay is classed as functional, cell-based. Conditions: MCF7, 48 h. On the technique in general: Tetrazolium assays rely on reduction of a dye to a coloured formazan, in cell work by metabolically active cells.
The subject of assay [1] is Tobacco mosaic virus. Kind of assay: Antiviral activity against TMV U1 infected on Nicotiana glutinosa leaves smeared with virus before compound treatment assessed as virus infection curative effect by measuring local lesion numbers after 3 to 4 days post virus inoculation at 200 ug/ml by half-leaf method. The assay is classed as functional. Conditions: U1, in Nicotiana glutinosa.

Assay [2] concerns Tobacco mosaic virus. Kind of assay: Antiviral activity against TMV U1 infected on 20 mins compound treated fresh leaves from 5 to 6 growth stage Nicotiana glutinosa assessed as inhibition of virus growth at 50 ug/ml cultured at 25 degC for 72 hrs by half-leaf method. In kind it is functional. The conditions noted are these: U1, in Nicotiana glutinosa.
Assay [3] relates to Tobacco mosaic virus. Kind of assay: Antiviral activity against TMV U1 infected on compound smeared Nicotiana glutinosa leaves assessed as virus infection protective effect by measuring local lesion numbers after 3 to 4 days post virus inoculation at 200 ug/ml by half-leaf method. The assay is classed as functional. The conditions noted are these: U1, in Nicotiana glutinosa.

The subject of assay [4] is Tobacco mosaic virus. Kind of assay: Antiviral activity against 30 mins compound pre-treated TMV U1 infected on Nicotiana glutinosa leaves assessed as virus inactivation effect by measuring local lesion numbers after 3 to 4 days post virus inoculation at 50 ug/ml by half-leaf method. In kind it is functional. Conditions: U1, in Nicotiana glutinosa.
In another assay the test system is SMMC-7721. Kind of assay: Cytotoxicity against human SMMC7721 cells incubated for 48 hrs by MTT assay. The conditions noted are these: SMMC-7721, 48 h. In kind it is functional, cell-based.
The subject of another assay is HL-60. Kind of assay: Cytotoxicity against human HL60 cells incubated for 48 hrs by MTT assay. In kind it is functional, cell-based. Conditions: HL-60, 48 h.
The subject of a further assay is A549. Kind of assay: Cytotoxicity against human A549 cells incubated for 48 hrs by MTT assay. In kind it is functional, cell-based. The conditions noted are these: A549, 48 h.
The test system of assay [5] is Tobacco mosaic virus. Kind of assay: Antiviral activity against 30 mins compound pre-treated TMV U1 infected on Nicotiana glutinosa leaves assessed as virus inactivation effect by measuring local lesion numbers after 3 to 4 days post virus inoculation at 20 ug/ml by half-leaf method relative to untreated control. In kind it is functional. The conditions noted are these: U1, in Nicotiana glutinosa.

Assay [6] relates to Tobacco mosaic virus. Kind of assay: Antiviral activity against 30 mins compound pre-treated TMV U1 infected on Nicotiana glutinosa leaves assessed as virus inactivation effect by measuring local lesion numbers after 3 to 4 days post virus inoculation at 50 ug/ml by half-leaf method relative to untreated control. In kind it is functional. The conditions noted are these: U1, in Nicotiana glutinosa.

Assay [7] has as its system Tobacco mosaic virus. Kind of assay: Antiviral activity against 30 mins compound pre-treated TMV U1 infected on Nicotiana glutinosa leaves assessed as virus inactivation effect by measuring local lesion numbers after 3 to 4 days post virus inoculation at 40 ug/ml by half-leaf method relative to untreated control. The conditions noted are these: U1, in Nicotiana glutinosa. In kind it is functional.

In assay [8] the test system is Tobacco mosaic virus. Kind of assay: Antiviral activity against 30 mins compound pre-treated TMV U1 infected on Nicotiana glutinosa leaves assessed as virus inactivation effect by measuring local lesion numbers after 3 to 4 days post virus inoculation at 30 ug/ml by half-leaf method relative to untreated control. The assay is classed as functional. Conditions: U1, in Nicotiana glutinosa.

Assay [9] has as its system Tobacco mosaic virus. Kind of assay: Antiviral activity against 30 mins compound pre-treated TMV U1 infected on Nicotiana glutinosa leaves assessed as virus inactivation effect by measuring local lesion numbers after 3 to 4 days post virus inoculation at 10 ug/ml by half-leaf method relative to untreated control. The assay is classed as functional. The conditions noted are these: U1, in Nicotiana glutinosa.

In assay [10] the test system is Tobacco mosaic virus. Kind of assay: Antiviral activity against 30 mins compound pre-treated TMV U1 infected on Nicotiana glutinosa leaves assessed as virus inactivation effect by measuring local lesion numbers after 3 to 4 days post virus inoculation by half-leaf method relative to untreated control. In kind it is functional, organism-based.

Converted amounts (≈) assume the structure as drawn.

Take `C=C1[C@@H]([C@@]2(C)C=CC(=O)OC(C)(C)[C@@H]2CC(=O)OC)[C@@H](OC(C)=O)[C@H](OC(C)=O)[C@@]2(C)[C@H](C(=O)O)C[C@H]3O[C@]132`: the IC50 in the assay with SW480, in the assay on MCF7, with SMMC-7721, in the assay on HL-60 and with A549 was greater than 10 µM throughout. For the same molecule, the inhibition (usually the change of the read-out against control, counted positive when it falls) at 200 µg/mL in the assay with Tobacco mosaic virus [1] turned out to be 27.3%; with Tobacco mosaic virus [3], 30.5%. The results for the inhibition at 50 µg/mL in the assay on Tobacco mosaic virus [2] and with Tobacco mosaic virus [4] were 30.7% and 32.5%, respectively.
Turning to `CC(=O)O[C@H]1C[C@@H]2[C@@]3(C)[C@@H](OC(C)=O)CC(=O)OC(C)(C)[C@@H]3CC[C@@]2(C)C2=CC[C@@H](c3ccoc3)[C@@]21C`, the IC50 (usually the point on the concentration scale where inhibition reaches its midpoint) is greater than 10 µM in the assay with SW480; greater than 10 µM in the assay on MCF7; greater than 10 µM with SMMC-7721; greater than 10 µM in the assay on HL-60; 27.7 µg/mL (≈ 54 µM) in the assay on Tobacco mosaic virus [10]; greater than 10 µM in the assay with A549. Also, the inhibition at 20 µg/mL with Tobacco mosaic virus [5] was 38.1%. For the same molecule, the results for the inhibition at 200 µg/mL with Tobacco mosaic virus [1] and in the assay with Tobacco mosaic virus [3] were 29.9% and 36.4%, respectively. Moreover, the inhibition at 50 µg/mL came to 89% in the assay with Tobacco mosaic virus [2], 83.6% in the assay with Tobacco mosaic virus [6] and 81.8% with Tobacco mosaic virus [4]. Also, the inhibition at 40 µg/mL with Tobacco mosaic virus [7] turned out to be 73.7%. The inhibition at 30 µg/mL with Tobacco mosaic virus [8] is 63.4%. Further, the inhibition at 10 µg/mL in the assay with Tobacco mosaic virus [9] stood at 20.3%.
Take `C/C=C(\C)C(=O)O[C@H]1C[C@@H](OC(C)=O)[C@@]2(C)CO[C@H]3[C@@H](O)[C@@]4(C)C5=C(C)[C@H](c6ccoc6)C[C@@H]5OC=C[C@@H]4[C@]1(C)[C@@H]32`: the IC50 in the assay on SW480, in the assay on MCF7, in the assay with SMMC-7721, in the assay with HL-60 and in the assay with A549 was greater than 10 µM throughout. Besides, the results for the inhibition at 200 µg/mL with Tobacco mosaic virus [1] and in the assay on Tobacco mosaic virus [3] were 20.1% and 24.7%, respectively. Moreover, the inhibition at 50 µg/mL in the assay on Tobacco mosaic virus [2] came out at 49.3%; with Tobacco mosaic virus [4], 38.5%.
Take `CC(=O)O[C@H]1[C@@H](OC(C)=O)[C@@]2(C)C3=CC[C@@H](c4ccoc4)[C@]3(C)CC[C@@H]2[C@@]2(C)[C@@H](O)C[C@@H](OC(C)=O)C(C)(C)[C@H]12`: the IC50 with SW480, in the assay with MCF7, in the assay on SMMC-7721, in the assay with HL-60 and with A549 was greater than 10 µM throughout. Moreover, the inhibition at 200 µg/mL in the assay with Tobacco mosaic virus [1] was determined as 23.6%; in the assay on Tobacco mosaic virus [3], 25.3%. In addition, the inhibition at 50 µg/mL is 33.6% with Tobacco mosaic virus [2] and 30.2% in the assay with Tobacco mosaic virus [4].
`C/C=C(\C)C(=O)O[C@H]1C[C@@H](OC(C)=O)[C@@]2(C)CO[C@H]3[C@@H](O)[C@]4(C)[C@H](CC(OC)O[C@H]5C[C@@H](c6ccoc6)C(C)[C@H]54)[C@]1(C)[C@@H]32` (stereo partly specified): the half-maximal inhibitory concentration (IC50) with SW480, in the assay with MCF7, with SMMC-7721, in the assay with HL-60 and in the assay with A549 was greater than 10 µM throughout. The results for the inhibition at 200 µg/mL in the assay with Tobacco mosaic virus [1] and in the assay on Tobacco mosaic virus [3] were 53.6% and 50%, respectively. For the same molecule, the inhibition at 50 µg/mL in the assay on Tobacco mosaic virus [2] amounted to 43.9%; in the assay with Tobacco mosaic virus [4], 31.5%.
As for `CO[C@H]1C[C@H]2[C@](C)(C3=C(C)[C@H](c4ccoc4)C[C@@H]3O1)[C@H](O)[C@@H]1OC[C@]3(C)[C@H](OC(C)=O)C[C@H](OC(=O)c4ccccc4)[C@@]2(C)[C@@H]13`, the IC50 with SW480, with MCF7, with SMMC-7721, in the assay with HL-60 and in the assay on A549 was greater than 10 µM throughout. The figures for the inhibition at 200 µg/mL in the assay with Tobacco mosaic virus [1] and in the assay on Tobacco mosaic virus [3] were 19.3% and 15%, respectively. The inhibition at 50 µg/mL was found to be 41.5% in the assay on Tobacco mosaic virus [2] and 30.9% in the assay with Tobacco mosaic virus [4].
In the case of `COC(=O)C[C@@H]1C(C)=C/C(=C\C2=C[C@@H](OC(C)=O)[C@H](OC(C)=O)[C@]3(C)C2=CC[C@H]3c2ccoc2)C(=O)OC1(C)C`, the IC50 with SW480, in the assay on MCF7, in the assay on SMMC-7721, in the assay on HL-60 and in the assay on A549 was greater than 10 µM each time. Besides, the inhibition at 200 µg/mL was determined as 27.9% in the assay on Tobacco mosaic virus [1] and 28.3% in the assay with Tobacco mosaic virus [3]. Moreover, the inhibition at 50 µg/mL in the assay with Tobacco mosaic virus [2] is 30.1%; in the assay on Tobacco mosaic virus [4], 27.6%.
On to `CC(=O)O[C@@H]1[C@H](O)[C@H]2C(C)(C)[C@H](OC(C)=O)C[C@H](OC(C)=O)[C@]2(C)[C@H]2CC[C@]3(C)C(=CC[C@H]3c3ccoc3)[C@]12C`, for which the IC50 in the assay on SW480, in the assay on MCF7, with SMMC-7721, with HL-60 and in the assay on A549 was greater than 10 µM in each case. In addition, the inhibition at 200 µg/mL with Tobacco mosaic virus [1] amounted to 15.4%; in the assay with Tobacco mosaic virus [3], 19.4%. For the same molecule, the inhibition at 50 µg/mL was found to be 18.5% with Tobacco mosaic virus [2] and 21.2% with Tobacco mosaic virus [4].
For `C/C=C(\C)C(=O)O[C@@H]1[C@@H]2OC[C@]3(C)[C@H](OC(C)=O)C[C@H](O)[C@@](C)([C@@H]23)[C@H]2CCO[C@H]3C[C@@H](C4=CCOC4=O)C(C)=C3[C@]12C` [CHISONIMBOLININ F], the IC50 in the assay with SW480, in the assay on MCF7, in the assay with SMMC-7721, with HL-60 and with A549 was greater than 10 µM in each case. The inhibition at 200 µg/mL in the assay with Tobacco mosaic virus [1] came to 20.5%; in the assay on Tobacco mosaic virus [3], 17.3%. Besides, the values for the inhibition at 50 µg/mL with Tobacco mosaic virus [2] and in the assay on Tobacco mosaic virus [4] were 44.5% and 34.1%, respectively.
Regarding `C=C1[C@@H]([C@@]2(C)C=CC(=O)O[C@](C)(COC(C)=O)[C@@H]2CC(=O)OC)[C@@H](OC=O)[C@H](OC(=O)[C@H](O)[C@H](C)CC)[C@@]2(C)[C@@H](c3ccoc3)C[C@H]3O[C@]132` [MOMBASOL], the IC50 in the assay with SW480, in the assay on MCF7, with SMMC-7721, in the assay with HL-60 and in the assay on A549 was greater than 10 µM in each case. Also, the inhibition at 200 µg/mL with Tobacco mosaic virus [1] came out at 28.1%; in the assay on Tobacco mosaic virus [3], 31.6%. Further, the inhibition at 50 µg/mL in the assay with Tobacco mosaic virus [2] is 47.6%; in the assay with Tobacco mosaic virus [4], 38.9%.
With `CNCC(=O)N[C@@H](CO)C(=O)N[C@H]1[C@H](O)[C@@H](O)[C@H](n2ccc(N)nc2=O)O[C@@H]1C(N)=O` [NINGNANMYCIN], the inhibition at 20 µg/mL in the assay on Tobacco mosaic virus [5] came to 20.8%. Also, the inhibition at 200 µg/mL came out at 40.7% in the assay on Tobacco mosaic virus [1] and 50.2% in the assay on Tobacco mosaic virus [3]. Moreover, the inhibition at 50 µg/mL with Tobacco mosaic virus [2] was 69.2%; in the assay with Tobacco mosaic virus [6], 57.3%; in the assay on Tobacco mosaic virus [4], 58.9%. For the same molecule, in the assay with Tobacco mosaic virus [7], the inhibition at 40 µg/mL is 38.6%. For the same molecule, the inhibition at 30 µg/mL in the assay with Tobacco mosaic virus [8] was 33.9%. Also, the inhibition at 10 µg/mL in the assay on Tobacco mosaic virus [9] amounted to 17.9%. Moreover, the IC50 in the assay with Tobacco mosaic virus [10] was determined as 44.6 µg/mL (≈ 101 µM).
On to `CC(=O)O[C@H]1C(=O)[C@@]2(C)[C@H]([C@H](OC(=O)c3ccccc3)[C@]3(O)C[C@H](OC(=O)[C@H](O)[C@@H](NC(=O)c4ccccc4)c4ccccc4)C(C)=C1C3(C)C)[C@]1(OC(C)=O)CO[C@@H]1C[C@@H]2O` [PACLITAXEL], for which the IC50 in the assay on SW480, in the assay on MCF7, in the assay on SMMC-7721, in the assay with HL-60 and with A549 was less than 0.008 µM throughout.
